Data set [1] is described as follows: Microsomal stability assay, rat liver microsomes (RLM). It is filed as in vitro ADME. The note with it: rat liver microsomes 0.5 mg/mL, 1 uM substrate, 2 mM NADPH, 37° C., referenced against time zero control. The protocol:
(§1) Microsomal Stability Assay.
(§2) Compounds were incubated at 37° C. and shaken for 30 minutes in a phosphate buffered solution with either rat or human liver microsomes and the cofactor NADPH. A time zero control was similarly prepared, however with NADPH excluded. The final incubation concentrations were 1 uM substrate (0.2% DMSO), 0.5 mg/mL liver microsome, 2 mM NADPH, and 0.1 M phosphate. Reactions were quenched and proteins precipitated with the addition of 2 volume equivalents of ice cold acetonitrile containing an internal standard. Following a centrifugation step, aliquots from the quenched incubations were further diluted with 4 volume equivalents of a 50% aqueous methanol solution and then subjected to LC/MS/MS analysis for quantitation of parent compound. Microsome stability values were calculated as the percent of substrate remaining after 30 minutes referenced against the time zero control.
(§3) Microsomal stability in rat and human liver microsomes were determined for selected compounds of the present invention using the above assay. Table 4 provides the human liver microsomes (“HLM”) and rat liver microsomes (“RLM”) stability data as the percent of compound remaining after 30 minutes referenced against the time zero control.

The nature of data set [2]: Microsomal stability assay, human liver microsomes (HLM). The following applies: human liver microsomes 0.5 mg/mL, 1 uM substrate, 2 mM NADPH, 37° C., referenced against time zero control. It is filed as in vitro ADME. The protocol: as §1, §2, §3
(Liver microsomes are a subcellular fraction often used to study metabolism.)

A further data set addresses human Nav1.8 (Homo sapiens (Human), UniProt Q9Y5Y9). Description: E-VIPR optical membrane potential assay with electrical stimulation. It is filed as cell-based. The note with it: HEK cells expressing human Nav1.8.

SMILES strings stand for the structures.

A word on the IC50: it is the concentration that gives 50% inhibition. Low values mean higher potency, high ones lower potency.

Sequence of human Nav1.8 (Q9Y5Y9 whole entry): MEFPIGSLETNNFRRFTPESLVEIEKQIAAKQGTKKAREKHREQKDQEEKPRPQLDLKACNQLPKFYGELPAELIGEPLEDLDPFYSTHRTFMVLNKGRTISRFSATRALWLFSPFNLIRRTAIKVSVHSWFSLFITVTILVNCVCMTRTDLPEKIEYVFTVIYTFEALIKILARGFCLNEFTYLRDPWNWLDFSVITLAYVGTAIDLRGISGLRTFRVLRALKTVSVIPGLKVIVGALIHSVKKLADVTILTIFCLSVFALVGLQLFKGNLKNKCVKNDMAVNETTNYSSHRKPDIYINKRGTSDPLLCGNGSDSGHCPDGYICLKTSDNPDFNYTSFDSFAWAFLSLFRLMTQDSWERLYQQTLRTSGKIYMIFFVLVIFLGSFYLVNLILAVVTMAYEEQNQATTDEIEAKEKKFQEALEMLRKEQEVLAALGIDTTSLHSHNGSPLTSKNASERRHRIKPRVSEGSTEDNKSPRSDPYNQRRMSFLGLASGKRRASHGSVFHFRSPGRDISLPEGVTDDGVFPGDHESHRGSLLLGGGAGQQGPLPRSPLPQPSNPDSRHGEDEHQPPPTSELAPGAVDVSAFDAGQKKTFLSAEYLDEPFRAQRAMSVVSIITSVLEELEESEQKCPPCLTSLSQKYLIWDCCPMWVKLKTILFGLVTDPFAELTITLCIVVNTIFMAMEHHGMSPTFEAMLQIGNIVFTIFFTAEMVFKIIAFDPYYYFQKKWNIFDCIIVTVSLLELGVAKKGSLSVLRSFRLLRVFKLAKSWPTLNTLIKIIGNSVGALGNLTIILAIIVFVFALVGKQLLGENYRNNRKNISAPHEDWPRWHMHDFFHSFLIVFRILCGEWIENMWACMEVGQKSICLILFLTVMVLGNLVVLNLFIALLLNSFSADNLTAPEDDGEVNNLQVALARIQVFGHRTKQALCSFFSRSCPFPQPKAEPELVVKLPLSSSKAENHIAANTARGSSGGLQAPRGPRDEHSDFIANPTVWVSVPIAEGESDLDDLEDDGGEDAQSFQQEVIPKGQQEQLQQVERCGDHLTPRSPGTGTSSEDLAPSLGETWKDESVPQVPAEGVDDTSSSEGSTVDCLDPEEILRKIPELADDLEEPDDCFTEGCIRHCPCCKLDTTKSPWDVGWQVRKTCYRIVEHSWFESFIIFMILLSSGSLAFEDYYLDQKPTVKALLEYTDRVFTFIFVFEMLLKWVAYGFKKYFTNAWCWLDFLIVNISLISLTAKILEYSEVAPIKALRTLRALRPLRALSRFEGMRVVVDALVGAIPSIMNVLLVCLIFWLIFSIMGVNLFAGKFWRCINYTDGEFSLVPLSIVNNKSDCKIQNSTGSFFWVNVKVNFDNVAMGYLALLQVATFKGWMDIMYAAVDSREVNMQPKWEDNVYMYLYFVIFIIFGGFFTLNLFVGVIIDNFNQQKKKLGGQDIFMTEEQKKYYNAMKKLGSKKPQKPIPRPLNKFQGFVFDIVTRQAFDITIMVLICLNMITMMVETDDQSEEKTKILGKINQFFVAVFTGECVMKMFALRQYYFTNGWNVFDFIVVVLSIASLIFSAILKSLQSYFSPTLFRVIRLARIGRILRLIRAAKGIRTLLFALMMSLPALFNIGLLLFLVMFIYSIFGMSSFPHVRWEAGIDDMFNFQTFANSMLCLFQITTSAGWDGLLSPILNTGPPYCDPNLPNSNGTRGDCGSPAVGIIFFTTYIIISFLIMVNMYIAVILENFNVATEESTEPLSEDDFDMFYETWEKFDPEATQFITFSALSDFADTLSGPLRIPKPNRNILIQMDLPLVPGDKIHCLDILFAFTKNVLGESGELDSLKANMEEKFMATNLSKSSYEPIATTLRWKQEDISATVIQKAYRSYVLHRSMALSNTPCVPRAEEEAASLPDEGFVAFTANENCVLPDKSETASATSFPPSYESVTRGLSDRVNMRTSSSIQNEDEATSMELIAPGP

For the compound `O=C(Nc1cc[nH]c(=O)c1)c1cc(OC(F)(F)F)ccc1Oc1ccc(F)cc1Cl` [Compound 37, 2-(2-chloro-4-fluorophenoxy)-N-(2-oxo-1,2-dihydropyridin-4-yl)-5-(trifluoromethoxy)benzamide], the “RLM (% remaining @ 30 minutes)” value in data set [1] worked out at 97%. For the same compound, the “HLM (% remaining @ 30 minutes)” value in data set [2] was determined as 100%. This compound gave an IC50 against human Nav1.8 of 51 nM.
For the compound `Cc1ccccc1Oc1ccc(C(F)(F)F)cc1C(=O)Nc1cc[nH]c(=O)c1` [Compound 28, N-(2-oxo-1,2-dihydropyridin-4-yl)-2-(o-tolyloxy)-5-(trifluoromethyl)benzamide], the “RLM (% remaining @ 30 minutes)” value in data set [1] amounted to 70%. Also, in data set [2], the “HLM (% remaining @ 30 minutes)” value was 79%. Also, the IC50 against human Nav1.8 turned out to be 44 nM.
Consider `O=C(Nc1cc[nH]c(=O)c1)c1cc(C(F)(F)F)ccc1Oc1ccc(F)cc1` [Compound 2, 2-(4-fluorophenoxy)-N-(2-oxo-1,2-dihydropyridin-4-yl)-5-(trifluoromethyl)benzamide], for which, in data set [1], the “RLM (% remaining @ 30 minutes)” value stood at 104%. For the same compound, the “HLM (% remaining @ 30 minutes)” value in data set [2] is listed as 100%. Besides, the half-inhibitory concentration (IC50) on human Nav1.8 came to 54 nM.
In the case of `O=C(Nc1cc[nH]c(=O)c1)c1cc(C(F)(F)F)ccc1Oc1ccc(F)cc1Cl` [Compound 29, 2-(2-chloro-4-fluorophenoxy)-N-(2-oxo-1,2-dihydropyridin-4-yl)-5-(trifluoromethyl)benzamide], the “RLM (% remaining @ 30 minutes)” value in data set [1] turned out to be 107%. Besides, the “HLM (% remaining @ 30 minutes)” value in data set [2] was 107%. The compound also came in with an IC50 at human Nav1.8 of 28 nM.
For the compound `O=C(Nc1cc[nH]c(=O)c1)c1ccc(C(F)(F)C(F)(F)F)cc1Oc1ccc(F)cc1` [Compound 88, 2-(4-fluorophenoxy)-N-(2-oxo-1,2-dihydropyridin-4-yl)-4-(perfluoroethyl)benzamide], the “RLM (% remaining @ 30 minutes)” value in data set [1] is on record as 102%. Further, in data set [2], the “HLM (% remaining @ 30 minutes)” value is 100%. The IC50 on human Nav1.8 turned out to be 12 nM.
Turning to `Cc1cc(F)ccc1Oc1ccc(Cl)cc1C(=O)Nc1cc[nH]c(=O)c1` [Compound 68, 5-chloro-2-(4-fluoro-2-methylphenoxy)-N-(2-oxo-1,2-dihydropyridin-4-yl)benzamide], the “RLM (% remaining @ 30 minutes)” value in data set [1] was determined as 72%. In data set [2], the “HLM (% remaining @ 30 minutes)” value is 98%. The same compound registered an IC50 on human Nav1.8 of 30 nM.
For `COc1cc(F)ccc1Oc1cc(C(F)(F)C(F)(F)F)ccc1C(=O)Nc1cc[nH]c(=O)c1` [Compound 111, 2-(4-fluoro-2-methoxyphenoxy)-N-(2-oxo-1,2-dihydropyridin-4-yl)-4-(perfluoroethyl)benzamide], the “RLM (% remaining @ 30 minutes)” value in data set [1] is listed as 90%. Further, in data set [2], the “HLM (% remaining @ 30 minutes)” value turned out to be 91%. Further, on human Nav1.8, the IC50 amounted to 3 nM.
For the compound `O=C(Nc1cc[nH]c(=O)c1)c1ccc(C(F)(F)F)cc1Oc1ccc(OC(F)F)cc1` [Compound 82, 2-(4-(difluoromethoxy)phenoxy)-N-(2-oxo-1,2-dihydropyridin-4-yl)-4-(trifluoromethyl)benzamide], the “RLM (% remaining @ 30 minutes)” value in data set [1] is 98%. The “HLM (% remaining @ 30 minutes)” value in data set [2] amounted to 101%. The compound further yielded an IC50 at human Nav1.8 of 36 nM.
As for `O=C(Nc1cc[nH]c(=O)c1)c1cc(C(F)(F)F)ccc1Oc1ccccc1OC(F)F` [Compound 76, 2-(2-(difluoromethoxy)phenoxy)-N-(2-oxo-1,2-dihydropyridin-4-yl)-5-(trifluoromethyl)benzamide], in data set [1], the “RLM (% remaining @ 30 minutes)” value stood at 93%. Moreover, the “HLM (% remaining @ 30 minutes)” value in data set [2] was 97%. Also, the IC50 against human Nav1.8 worked out at 54 nM.
As to `COc1cc(F)ccc1Oc1ccc(C(F)(F)F)cc1C(=O)Nc1cc[nH]c(=O)c1` [Compound 30, 2-(4-fluoro-2-methoxyphenoxy)-N-(2-oxo-1,2-dihydropyridin-4-yl)-5-(trifluoromethyl)benzamide], the “RLM (% remaining @ 30 minutes)” value in data set [1] stood at 78%. The “HLM (% remaining @ 30 minutes)” value in data set [2] came out at 76%. Moreover, it took 11 nM to reach half-maximal inhibition at human Nav1.8 (IC50).
`O=C(Nc1cc[nH]c(=O)c1)c1cc(F)c(Cl)cc1Oc1ccc(F)cc1Cl` [Compound 109, 4-chloro-2-(2-chloro-4-fluorophenoxy)-5-fluoro-N-(2-oxo-1,2-dihydropyridin-4-yl)benzamide]: the “RLM (% remaining @ 30 minutes)” value in data set [1] was found to be 100%. For the same compound, the “HLM (% remaining @ 30 minutes)” value in data set [2] is recorded as 103%. The same compound had an IC50 against human Nav1.8 of 19 nM.
As to `O=C(Nc1cc[nH]c(=O)c1)c1c(Oc2ccc(F)cc2F)cc(C(F)(F)F)cc1C(F)(F)F` [Compound 152, 2-(2,4-difluorophenoxy)-N-(2-oxo-1,2-dihydropyridin-4-yl)-4,6-bis(trifluoromethyl)benzamide], the “RLM (% remaining @ 30 minutes)” value in data set [1] is 100%. Also, in data set [2], the “HLM (% remaining @ 30 minutes)” value was 103%. This compound also gave an IC50 at human Nav1.8 of 44 nM.
In the case of `Cc1cc(F)ccc1Oc1ccc(C(F)(F)F)cc1C(=O)Nc1cc[nH]c(=O)c1` [Compound 31, 2-(4-fluoro-2-methylphenoxy)-N-(2-oxo-1,2-dihydropyridin-4-yl)-5-(trifluoromethyl)benzamide], the “RLM (% remaining @ 30 minutes)” value in data set [1] is on record as 91%. In addition, the “HLM (% remaining @ 30 minutes)” value in data set [2] was 92%. Moreover, on human Nav1.8, the IC50 stood at 17 nM.
As for `Cc1cc(F)ccc1Oc1cc(Cl)ccc1C(=O)Nc1cc[nH]c(=O)c1` [Compound 20, 4-chloro-2-(4-fluoro-2-methylphenoxy)-N-(2-oxo-1,2-dihydropyridin-4-yl)benzamide], in data set [1], the “RLM (% remaining @ 30 minutes)” value was found to be 88%. Further, the “HLM (% remaining @ 30 minutes)” value in data set [2] turned out to be 104%. On human Nav1.8, this compound had an IC50 of 30 nM.
The matching figures for `CC(C)(C)c1ccc(C(=O)Nc2ccc(=O)[nH]c2)c(Oc2ccc(C(F)(F)F)nc2)c1` [Compound 142, 4-(tert-butyl)-N-(6-oxo-1,6-dihydropyridin-3-yl)-2-((6-(trifluoromethyl)pyridin-3-yl)oxy)benzamide]: 50%, 38% and 653 nM.
As to `COc1ccc(Oc2cc(Cl)c(Cl)cc2C(=O)Nc2cc[nH]c(=O)c2)cc1F` [Compound 115, 4,5-dichloro-2-(3-fluoro-4-methoxyphenoxy)-N-(2-oxo-1,2-dihydropyridin-4-yl)benzamide], the “RLM (% remaining @ 30 minutes)” value in data set [1] stood at 95%. For the same compound, in data set [2], the “HLM (% remaining @ 30 minutes)” value amounted to 102%. On human Nav1.8, this compound returned an IC50 of 7 nM.
With `O=C(Nc1cc[nH]c(=O)c1)c1ccc(C(F)(F)F)cc1Oc1ccc(OC(F)(F)F)cc1` [Compound 79, N-(2-oxo-1,2-dihydropyridin-4-yl)-2-(4-(trifluoromethoxy)phenoxy)-4-(trifluoromethyl)benzamide], the “RLM (% remaining @ 30 minutes)” value in data set [1] was determined as 100%. Besides, the “HLM (% remaining @ 30 minutes)” value in data set [2] was found to be 103%. In addition, the IC50 against human Nav1.8 is 11 nM.
With `COc1cc(F)ccc1Oc1cc(Cl)c(Cl)cc1C(=O)Nc1cc[nH]c(=O)c1` [Compound 114, 4,5-dichloro-2-(4-fluoro-2-methoxyphenoxy)-N-(2-oxo-1,2-dihydropyridin-4-yl)benzamide], in data set [1], the “RLM (% remaining @ 30 minutes)” value was found to be 82%. Further, the “HLM (% remaining @ 30 minutes)” value in data set [2] came out at 91%. Moreover, at human Nav1.8, the IC50 was 1 nM.
As for `O=C(Nc1cc[nH]c(=O)c1)c1cc(C(F)(F)F)ccc1Oc1ccc(OC(F)(F)F)cc1` [Compound 72, N-(2-oxo-1,2-dihydropyridin-4-yl)-2-(4-(trifluoromethoxy)phenoxy)-5-(trifluoromethyl)benzamide], the “RLM (% remaining @ 30 minutes)” value in data set [1] is listed as 95.5%. In addition, the “HLM (% remaining @ 30 minutes)” value in data set [2] was 100%. At human Nav1.8, this compound yielded an IC50 of 13 nM.
Take `O=C(Nc1cc[nH]c(=O)c1)c1cc(Cl)c(Cl)cc1Oc1ccc(F)cc1` [Compound 113, 4,5-dichloro-2-(4-fluorophenoxy)-N-(2-oxo-1,2-dihydropyridin-4-yl)benzamide]: the “RLM (% remaining @ 30 minutes)” value in data set [1] was determined as 102%. Also, in data set [2], the “HLM (% remaining @ 30 minutes)” value was found to be 105%. The same compound gave an IC50 against human Nav1.8 of 6 nM.
Consider `O=C(Nc1cc[nH]c(=O)c1)c1ccc(C(F)(F)F)cc1OCCCC(F)(F)F` [Compound 123, N-(2-oxo-1,2-dihydropyridin-4-yl)-2-(4,4,4-trifluorobutoxy)-4-(trifluoromethyl)benzamide], for which, in data set [1], the “RLM (% remaining @ 30 minutes)” value was determined as 98%. Further, in data set [2], the “HLM (% remaining @ 30 minutes)” value stood at 103%. The compound further yielded an IC50 on human Nav1.8 of 355 nM.
